# Data: EP0340198B1, “Immunoassay for the detection of alpha-haloacetamides” (priority 1988, dated 1989)
# Columns and labels:
# alachlor antibodies = assay: inhibition ELISA for alachlor (cross-reactivity studies); assay type: binding, rabbit; details: for reaction (cross-reactivity) with the antibodies, in words: relative to alachlor
# Description: Immunoassays. A known "checkerboard assay" was initially conducted with each serum sample after the first boost to detect the production of antibodies against alachlor. […] The next 7 rows received the subsequent dilutions of the screening antigen. The plate was covered with Parafilm and stored overnight at 4°C. The next morning, the unbound screening antigen was removed from the wells by washing three times with phosphate buffered saline solution (0.01 M phosphate buffer of pH 7.4, 0.15 M NaCl; PBS). The remaining active sites in the wells were blocked with PBS-8% non-fat dry milk solution, (NFDM, 0.3 mL) for 1 hr at 22°C. Serum, which had been stored at -20°C, was freshly thawed and serially diluted (one to two) from 1,000 to 64,000-fold using PBS-T (PBS containing 0.02% Tween 20). Starting with the most concentrated solution, 0.1 mL of the serum solution was pipetted into all 8 wells of column 1; the remaining columns received the subsequent dilutions of the serum solution. The plate was covered and incubated at 22°C for 1.5 hrs. Following triplicate washes of the wells with PBS-T, each of the wells received 0.1 mL of goat anti-rabbit gamma-globulin conjugated to horseradish peroxidase (GAR-HRP) freshly thawed and diluted 4,000 fold with PBS-1% NFDM. After a final wash cycle (4 times) with PBS-T, freshly prepared O-phenylene diamine (PDA) substrate solution (0.2 mL, 0.04 mg/mL PDA and 0.01% H₂O₂ in 0.05 M citric acid and 0.15 M sodium dibasic phosphate, pH 5.0) was dispensed into each of the wells and incubated in the dark at 22°C for 30-60 min. Sulfuric acid (4 N, 50 µL) was added to each of the wells to stop the reaction, and the final absorbances of the wells (490 nm) were recorded.
# The inhibition ELISA required one additional step in the assay procedure described above. Equal volumes of the diluted serum and aqueous alachlor standard or unknown sample were mixed and preincubated at 22°C for 1 hr. This mixture (0.1 mL/well) was then analyzed in 6 replicate wells on the plate. The presence of free alachlor inhibited the binding of the antibody to the alachlor-BSA conjugate, resulting in an inhibition of the development of absorbance at 490 nm. The amount of free alachlor was indirectly proportional to the intensity of color developed. Levels of alachlor in unknown water samples were calculated based on the alachlor standards on the same plate. Alachlor standards (0, 0.2, 0.5, 1.0, 3.0, 5.0, and 8.0 ppb in deionized water) were stored at -20°C in 1-mL portions, and were freshly thawed for each assay.
# Data Calculations. The lay-out of a typical 96-well microtiter plate is 8 rows of 12 columns in an inhibition ELISA assay for alachlor. The first 6 wells in the first column of wells were not coated with the screening antigen and served as the background wells. The first 6 wells in the remaining 7 columns of wells were reserved for the seven alachlor standards (0 to 8 ppb) listed above. The remaining wells in all 8 rows were used for the samples. The uncorrected absorbances of the wells determined by the Bio-tek reader were used in the following calculations. The median was calculated for the 6 replicate background wells and was then subtracted from the medians of the standards and samples. All the median values were divided by the median of the standard without alachlor (0 ppb) to generate percentages of absorbances. The percent absorbance of the alachlor standards was then plotted on the Y axis against the logarithm (base 10) of the actual concentrations of alachlor on the X axis. A hyperbolic curve was drawn through the standards, and the resulting standard curve was used to calculate the concentrations of alachlor in the unknown samples.
# The calculations described above were usually carried out using a computer program.
# [1] = system: antibodies toward amidochlor; assay: inhibition ELISA for amidochlor; assay type: binding, rabbits; details: for inhibition of the ELISA assay for amidochlor: standard solutions at 10 and 50 ppb in DI water
# From the text: (§1) The generation of antibodies toward butachlor (2-chloro-2′,6′-diethyl-N-(butoxymethyl)acetanilide), amidochlor (2-chloro-2′,6′-diethyl-N-acetamidomethyl acetanilide), and metolachlor (2-chloro-2′-ethyl-6′-methyl-N-(2-methoxy-1-methylethyl)acetanilide) were accomplished following identical procedures as those described for alachlor. The individual 14C-labeled chloroacetanilide was covalently bound to HSA (human serum albumin) with AHT, and to sheep IgG with AMSA.
# (§2) The hapten-IgG conjugates were used to immunize rabbits. The corresponding hapten-BSA conjugates were then utilized in checkerboard assays to determine the presence of desired antibodies in the antisera. An inhibition ELISA for butachlor was set up with antiserum, butachlor-HSA screening antigen, and butachlor. Similar assays were also set up for amidochlor and metolachlor.
# (§3) The sensitivity of the inhibition ELISA for butachlor, amidochlor, and metolachlor was tested with respective standards prepared in DI water. Using the best antiserum, the butachlor ELISA produced an IC50 of 8 ppb.
# (§4) The specificity of the ELISA for butachlor, amidochlor, and metolachlor were tested using standard solutions of alachlor, acetochlor, butachlor, amidochlor, metolachlor, and propachlor at concentrations of 10 and 50 ppb in DI water. At these concentrations, the ELISA assay for butachlor, amidochlor, and metolachlor was each inhibited only by the respective free hapten, and not by any of the other chloroacetanilides.
# [2] = system: antibodies toward metolachlor; assay: inhibition ELISA for metolachlor; assay type: binding, rabbits; details: for inhibition of the ELISA assay for metolachlor: standard solutions at 10 and 50 ppb in DI water
# From the text: as §1, §2, §3, §4
# [3] = system: antibodies toward butachlor; assay: inhibition ELISA for butachlor; assay type: binding, rabbits; details: for inhibition of the ELISA assay for butachlor: standard solutions at 10 and 50 ppb in DI water
# From the text: as §1, §2, §3, §4
# [4] = system: antibodies isolated from the serum of the first bleed of the rabbit; assay: affinity column binding of 14C-labeled analytes from aqueous solution; details: 14C-labeled analogs, test of non-specific binding
# Description: Affinity Chromatography. The preparation of affinity columns using rabbit antisera was as follows: The rabbit IgG's were purified by passing 5 mL of the antiserum through a column containing 5 mL of the swelled protein A-agarose gel. By monitoring the absorbance at 280 nm in the column effluent, the non-bound proteins were removed by washing with PBS, and the IgG's were then eluted with acetic acid at pH 2.3 (0.58% acetic acid and 0.15 M NaCl). The fractions containing the IgG's were combined and neutralized; based on the UV absorbance at 280 nm (absorbance/1.4 = mg/mL protein), approximately 33 mg of IgG were isolated from 5 mL of serum, which was then lyophilized and stored at -20°C. The reusable protein A-agarose column was stored in PBS containing 0.02% sodium azide at 4°C.
# The protein A-purified IgG was immobilized onto Affigel-10 affinity support. Affigel-10 (5 mL) was washed 3 times with isopropyl alcohol and 3 times with cold distilled water in a Buchner funnel. The gel was then added to a solution of IgG (3 mL in 0.1 M HEPES buffer, pH 7.5) at 4°C. Following 4 hrs of stirring, the gel was precipitated by gentle centrifugation and washed with HEPES buffer (3 x 3 mL). The remaining active sites on the gel were blocked by resuspending the gel in water (2 mL) and adding ethanolamine HCl (0.5 mL, 1M), and stirring the mixture at 22°C for 1 hr. The affinity column was useful in adsorbing alachlor and other analytes from aqueous solutions. After binding the alachlor, the column was washed with water (2 mL/min) to remove unbound material and alachlor was eluted with 75% aqueous methanol.
# Using the antibodies isolated from the serum of the first bleed of the rabbit, an affinity column for alachlor was constructed to study its utility as an isolation and purification tool. The IgG's in the serum of the rabbit immunized with the alachlor-IgG conjugate were purified with a protein A-agarose column. The purified IgG was then immobilized onto the Affigel-10 support. Alachlor (¹⁴C-labeled) in aqueous solution was passed through the column with a flow rate of 2 mL/min; the column was washed with water and eluted with 75% aqueous methanol. The radioactivity in the wash and eluent were determined by liquid scintillation counting. […] The capacity of the column was less than 1 µg, and once this level was exceeded, alachlor no longer bound to the column. The recovery of applied radioactivity generally ranged from 80% to 100%. In a second experiment, alachlor (0.5 µg) was dissolved into increasing volumes of water ranging from 1 mL to 100 mL.
# To eliminate the possibility of non-specific binding of alachlor to the affinity column, other ¹⁴C-labeled analogs were also studied. These included acetanilide herbicides butachlor, acetochlor, metolachlor, and propachlor and the previously mentioned alachlor metabolites mercapturate and its methyl ester. The affinity column bound butachlor and acetochlor, but not metolachlor, propachlor, or mercapturate.
# [5] = IC50 of alachlor divided by IC50 of analog x 100, bleed not stated
Molecule,"reaction (cross-reactivity) with the antibodies, in words (alachlor antibodies)",percent cross-reactivity (alachlor antibodies; [5]),also measured
CCc1cccc(CC)c1N(COC)C(=O)CS(=O)(=O)CCO,no cross-reactivity,,
CCc1cccc(CC)c1N(COC)C(=O)CSC,strong interaction,188%,
CCc1cccc(CC)c1NC(=O)CSC,no cross-reactivity,,
"CCc1cccc(CC)c1N [2,6-diethylaniline]",no reaction,,
CCc1cccc(CC)c1N(COC)C(=O)C[S+]([O-])CC(NC(C)=O)C(=O)O (stereo not shown) [S=O derivative],significantly reduced or eliminated,,
"CCc1cccc(CC)c1N(CNC(C)=O)C(=O)CCl [amidochlor, 2-chloro-2′,6′-diethyl-N-acetamidomethyl acetanilide]",little to no interaction,,"IC50 ([1]; amidochlor-HSA as the screening antigen, standards in DI water): 2 ppb; IC50 ([1]; butachlor-HSA substituted for amidochlor-HSA as the screening antigen): 0.2 ppb; inhibition of the ELISA assay for amidochlor [1]: inhibited; inhibition of the ELISA assay for metolachlor [2]: not; inhibition of the ELISA assay for butachlor [3]: not"
"CCCCOCN(C(=O)CCl)c1c(CC)cccc1CC [butachlor, 2-chloro-2′,6′-diethyl-N-(butoxymethyl)acetanilide]",little to no interaction,,"binding by the affinity column [4]: bound; inhibition of the ELISA assay for amidochlor [1]: not; inhibition of the ELISA assay for metolachlor [2]: not; IC50 ([3]; best antiserum, butachlor-HSA screening antigen, standards in DI water): 8 ppb; inhibition of the ELISA assay for butachlor [3]: inhibited"
CCc1cccc(CC)c1N(COC)C(=O)CSCC(NC(=O)CCC(N)C(=O)O)C(=O)NCC(=O)O (stereo not shown) [glutathione conjugate of alachlor],,27.5%,
CCc1cccc(CC)c1N(COC)C(=O)CSCC(NC(C)=O)C(=O)O (stereo not shown) [mercapturate analog],,,binding by the affinity column [4]: not; percent cross-reactivity (alachlor antibodies; bleed four): 18%; percent cross-reactivity (alachlor antibodies; bleed seven): 65%
CCc1cccc(CC)c1N(COC)C(=O)CSCC(NC(C)=O)C(=O)OC (stereo not shown) [methyl ester of the mercapturate],,89.7%,binding by the affinity column [4]: Binding was observed
"CCc1cccc(C)c1N(C(=O)CCl)C(C)COC (stereo not shown) [metolachlor, 2-chloro-2′-ethyl-6′-methyl-N-(2-methoxy-1-methylethyl)acetanilide]",little to no interaction,,"binding by the affinity column [4]: not; inhibition of the ELISA assay for amidochlor [1]: not; IC50 ([2]; best antiserum, standards in DI water): 8 ppb; inhibition of the ELISA assay for metolachlor [2]: inhibited; inhibition of the ELISA assay for butachlor [3]: not"
CCc1cccc(CC)c1N(COC)C(C)=O [norchloro-alachlor],,22%,
CCc1cccc(CC)c1NC(=O)CSCC(NC(C)=O)C(=O)O (stereo not shown) [secondary amide mercapturate],significantly reduced or eliminated,,
CCc1cccc(CC)c1N(COC)C(=O)CS(C)(=O)=O [sulfone analog],,9%,
CCc1cccc(CC)c1N(COC)C(=O)CS(=O)(=O)O [sulfonic acid],little reaction,less than 2.5%,
CCc1cccc(CC)c1N(COC)C(=O)C[S+](C)[O-] (stereo not shown) [sulfoxide analog],,15%,
CCc1cccc(CC)c1N(COC)C(=O)CSCC(=O)O [thioacetic acid conjugate of alachlor],,57.0%,
"CCc1cccc(CC)c1NC(=O)CCl [α-chloro-2′,6′-diethylacetanilide]",no reaction,,
oxanilic acid,little reaction,less than 2.5%,
